Assay results as given in patent US6486203B1, “Treating inflammatory diseases of the head and neck with cyclooxygenase-2 inhibitors” (Cornell Research Foundation, Inc., priority 1998, dated 2002).

How the values were obtained:
Format in all cases: in vivo, human
sinusitis = test: Treatment of a patient with sinusitis (Example III); details: person with sinusitis; 200 mg orally twice a day, together with amoxicillin; after taking one dose
Description: A person presents to their physician complaining of fever and headache. On physical examination, they have tenderness over their maxillary sinus. A diagnosis of sinusitis is made. The patient is treated with amoxicillin 500 mg orally every eight hours for ten days. They are also given Celebrex 200 mg orally twice a day for seven days.

tonsillitis = test: Treatment of a patient with tonsillitis (Example I); details: person with tonsillitis; 200 mg orally twice a day, together with amoxicillin; after taking one dose
Description: A person has symptoms of a sore throat and fever. They are evaluated by a physician who notes inflamed tonsils and diagnoses tonsillitis. The patient is treated with amoxicillin 500 mg orally every eight hours for ten days. Additionally, they are given Celebrex (celecoxib) 200 mg orally twice a day for seven days.

viral pharyngitis = test: Treatment of a patient with viral pharyngitis with lozenges (Example II); details: person with viral pharyngitis; lozenges containing 100 mg four times a day
Description: A person has symptoms of a sore throat. They are evaluated by their physician who detects an erythematous pharynx. A diagnosis of viral pharyngitis is made.

sore throat = test: Treatment of sore throat with resveratrol lozenges (Example IV); details: person with sore throat; lozenges of 1 gram, four per day for two days
Excerpt: A person has symptoms of a sore throat.

periodontitis = test: Treatment of a patient with periodontitis with resveratrol lozenges (Example V); details: tobacco-smoking person with periodontitis; lozenges of 1 gram twice a day; four months later
Excerpt: A […] tobacco-smoking […] is referred to a periodontist for bleeding gums and is diagnosed with periodontitis.

| Structure (SMILES) | improvement in sinus pain (sinusitis) | improvement in throat pain (tonsillitis) | resolution of sore throat (viral pharyngitis) | relief of throat discomfort (sore throat) | bleeding in gums (periodontitis) | periodontal disease on examination (periodontitis) |
| --- | --- | --- | --- | --- | --- | --- |
| Cc1ccc(-c2cc(C(F)(F)F)nn2-c2ccc(S(N)(=O)=O)cc2)cc1 [Celebrex, 4-[5-(4-Methylphenyl)-3-(trifluoromethyl)-1H-pyrazol-1-yl]benzenesulfonamide] | marked improvement in their sinus pain | marked improvement in their throat pain | complete resolution of their sore throat within two days | – | – | – |
| Oc1ccc(/C=C/c2cc(O)cc(O)c2)cc1 [resveratrol] | – | – | – | rapid relief of their throat discomfort | markedly decreased bleeding in their gums | improvement in periodontal disease is detected on examination |
